# According to patent publication US12139458B2, “(2,5-dioxopyrrolidin-1-yl)(phenyl)-acetamide derivatives and their use in the treatment of neurological diseases” (UNIWERSYTET JAGIELLONSKI, priority 2019, dated 2024):
# Assays:
# [1] = tested on: male Swiss albino mice (CD-1); experiment: Psychomotor seizure test 6 Hz (32 mA); type: in vivo; details: Mus musculus, ip, 0.5 h, mice; for responders at 100 mg/kg: screening, 100 mg/kg i.p., read-out: 6 Hz (32 mA): number of mice protected/number of mice tested (converted)
# Protocol: (§1) The male Swiss albino mice (CD-1) weighing 18-26 g were used. All procedures were carried out in accordance with applicable Polish and international guidelines on the ethics of animal testing, after obtaining appropriate institutional approval. The substances were administered intraperitoneally (i.p.), in 1% aqueous solution of Tween, as single injections with a volume of 10 ml/kg, 30 minutes before the given test. Screening was performed on groups consisted of 4 mice. The average effective dose (ED50) in given test and toxic dose in the rotarod test (TD50) was estimated based on the results obtained in 3-4 groups of animals consisting of 6 mice. All tests were carried out based on the procedures described in the specialist literature.
# In the 6 Hz test, seizures were induced by an electric stimulus of 32 mA and/or 44 mA and a frequency of 6 pulses per second. An electrical pulse was generated using an electric shock generator (ECT Unit 57800; Ugo Basile, Gemonio, Italy) and delivered to the animal using ocular electrodes. Before starting the test, the eye surface was gently moistened with a solution of local anesthetic (1% lidocaine solution). The study was conducted 30 minutes after intraperitoneal administration of the compounds at various doses. An electrical pulse was delivered continuously for a period of 3 seconds, followed by observation of the animal for a period of 10 seconds. During this time, immobility or stun associated with rearing, forelimb clonus, twitching of the vibrissae and Straub's tail were observed. These symptoms persist throughout the observation period, indicating the occurrence of psychomotor seizures in mice. Mice resuming normal behavior within 10 s after stimulation were considered as protected (Barton, M. E.; Klein, B. D.; Wolf, H. H.; White, H. S. Epilepsy Res. 2001, 47, 217-227; Wojda, E.; Wlaź, A.; Patsalos, P. N.; Łuszczki, J. J. Epilepsy Res. 2009, 86, 163-174).
# (§2) To perform a statistical evaluation of the results, one-way ANOVA variance analysis and Dunnett's post hoc test (multiple comparison test) were used. The value at the significance level p<0.05 was considered statistically significant.
# [2] = Rotarod test (motor coordination); type: in vivo; details: male, Swiss albino (CD-1), mouse, in vivo, ip, mice
# Protocol: as §1, with “All” for “The male Swiss albino mice (CD-1) weighing 18-26 g were used. All”, “The average effective dose (ED50) in given test and toxic dose in the rotarod test (TD50) was estimated based on the results obtained in 3-4 groups of animals consisting of 6 mice.” left out
# Mice were trained the day before the actual experiment. They were placed individually on a 2 cm diameter rod rotating at 10 revolutions per minute (rpm). During each training session, the animals remained on the rod for 3 minutes. The experiment was carried out 30 minutes after administration of the compounds. Motor coordination was tested at the speed of the rotating bar: 10 rpm during 60 seconds. Motor impairments were defined as the inability to remain on the rotating rod for 1 min.
# as §2
# [3] = Metabolic stability in human liver microsomes; type: in vitro ADME
# Protocol: Metabolic stability. The metabolic stability of compound 6 was evaluated using human liver microsomes (HLMs). Internal clearance values CLint were calculated by monitoring changes in compound concentration in the presence of microsomes per unit of time, according to the procedure proposed by Obach R. S. (Obach, R. S. Drug Metab. Dispos. 1999, 27, 1350-1359).
# Metabolic stability tests—methodology. Metabolic stability studies for compound 6 were performed using HLMs (Promega, Madison, WI, USA). For this purpose, 10 μL of compound 6 at a concentration of 1000 μM was diluted with 132 μL with tris-HCl buffer (100 mM, pH 7.4), followed by the addition of 8 μL of appropriate microsomes. The reaction mixture was preincubated at 37° C. for 5 minutes, followed by the addition of 50 μL of NADPH Regeneration System, supplied by Promega (Madison, WI, USA). After mixing, the whole mixture was incubated at 37° C. for 120 minutes. To complete the reaction, 200 μL of cold methanol was added to the tubes and centrifuged. The supernatant was subjected to UPLC/MS analysis, including fragmentation analysis. Four mixtures of 6 with HLMs were prepared to determine the internal clearance CLint. Each of these reactions was completed at a different time point, after 5, 15, 30 and 45 min, by the addition of cold methanol containing 50 μM internal standard. Then, according to literature guidelines (Obach, R. S. Drug Metab. Dispos. 1999, 27, 1350-1359), based on the plot of the relationship between the height of the peak from 6 and the height of the internal standard, the regression equation was determined and the reaction rate constant k was calculated. Then the constant k was substituted to equation (1).
# The calculated t1/2 value was then substituted into equation (2): […]
# [4] = tested on: male Swiss albino mice (CD-1); experiment: Maximal electroshock seizure test (MES); type: in vivo; details: Mus musculus, ip, 0.5 h, mice; for responders at 100 mg/kg: screening, 100 mg/kg i.p., read-out: MES: number of mice protected/number of mice tested (converted)
# Protocol: as §1
# In the MES test, the seizures were induced by an electrical stimulus lasting of 0.2 s duration, 500 V voltage and 25 mA intensity. The electrical stimuli was generated using an electric shock generator (Rodent shocker, Type 221, Hugo Sachs Elektronik, Germany) and delivered to the animal using electrodes placed on the auricles. The study was conducted 30 minutes after intraperitoneal administration of the compounds at various doses. During the experiment, the number of animals that experienced a seizure episode in the form of tonic extension of the hind limbs was counted (Kamiński, K.; Rapacz, A.; Łuszczki, J. J.; Latacz, G.; Obniska, J.; Kieć-Kononowicz, K.; Filipek, B. Bioorg. Med. Chem. 2015, 23, 2548-2561; Castel-Branco, M. M.; Alves, G. L.; Figueiredo, I. V.; Falcão, A. C.; Caramona, M. M. Methods Find. Exp. Clin. Pharmacol. 2009, 31, 101-106).
# as §2
# [5] = tested on: male Swiss albino mice (CD-1); experiment: Subcutaneous pentylenetetrazole seizure test (scPTZ); type: in vivo; details: 0.5 h, mice; for ED50: Mus musculus, ip; for scPTZ: number of mice protected/number of mice tested: screening, 100 mg/kg i.p.
# Protocol: as §1
# In the scPTZ test, seizures were induced by subcutaneous administration of pentylenetetrazole (PTZ) at a dose of 100 mg/kg. This caused clonic seizures with accompanying loss of the righting reflex. Test compounds were administered 30 minutes before the experiment. After PTZ administration, the animals were placed individually in transparent containers and observed for a period of 30 minutes for the occurrence of clonic seizures. During this time, the latency of the first onset of clonic seizures, defined as clonus of the whole body lasting at least 3 seconds with loss of the righting reflex and the number of seizure episodes during the test were noted and compared with control group. The absence of clonic convulsions within the observed time period was interpreted as the compound's ability to protect against PTZ-induced seizures (Ferreri, G.; Chimirri, A.; Russo, E.; Gitto, R.; Gareri, P.; De Sarro, A.; De Sarro, G. Pharmacol. Biochem. Behav. 2004, 77, 85-94; Łączkowski, K.; Sałat, K.; Misiura, K.; Podkowa, A.; Malikowska, N. J. Enzyme Inhib. Med. Chem. 2016, 31, 1576-82).
# as §2
# [6] = tested on: male Swiss albino mice (CD-1); experiment: Psychomotor seizure test 6 Hz (44 mA); type: in vivo; details: 0.5 h, mice; for 6 Hz (44 mA): number of mice protected/number of mice tested: screening, 100 mg/kg i.p.
# Protocol: as §1, with “All” for “The male Swiss albino mice (CD-1) weighing 18-26 g were used. All”, “The average effective dose (ED50) in given test and toxic dose in the rotarod test (TD50) was estimated based on the results obtained in 3-4 groups of animals consisting of 6 mice.” left out
# In the 6 Hz test, seizures were induced by an electric stimulus of 32 mA and/or 44 mA and a frequency of 6 pulses per second. […] Before starting the test, the eye surface was gently moistened with a solution of local anesthetic (1% lidocaine solution). The study was conducted 30 minutes after intraperitoneal administration of the compounds at various doses. An electrical pulse was delivered continuously for a period of 3 seconds, followed by observation of the animal for a period of 10 seconds. During this time, immobility or stun associated with rearing, forelimb clonus, twitching of the vibrissae and Straub's tail were observed. These symptoms persist throughout the observation period, indicating the occurrence of psychomotor seizures in mice.
# as §2
compound,measurement,setting,value
"O=C([C@@H](c1ccccc1)N1C(=O)CCC1=O)N1CCN(c2cccc(C(F)(F)F)c2)CC1 [(R)-6, (R)-1-(2-Oxo-1-phenyl-2-(4-(3-(trifluoromethyl)phenyl)piperazin-1-yl)ethyl) pyrrolidine-2,5-dione]",ED50,[1],39.1 mg/kg
same,responders at 100 mg/kg,[1],100%
same,TD50 at 0.5 h,[2],468 mg/kg
same,metabolites found by UPLC after incubation with HLMs,"[3]; 120 min incubation, UPLC/MS",two metabolites
same,CLint scaled at 50 µM,"[3]; human, human liver microsomes, pH 7.4, incubation with HLMs, read-out: internal clearance CLint",2.4 mL/min/kg
same,ED50,[4],36 mg/kg
same,responders at 100 mg/kg,[4],100%
same,ED50,[5],54.8 mg/kg
same,scPTZ: number of mice protected/number of mice tested,[5],¾
same,ED50,"[6]; Mus musculus, ip",115 mg/kg
same,6 Hz (44 mA): number of mice protected/number of mice tested,[6],¾
"O=C(C(c1ccccc1)N1C(=O)CCC1=O)N1CCN(c2cccc(Cl)c2)CC1 (racemic) [Compound 3, 1-(2-(4-(3-Chlorophenyl)piperazin-1-yl)-2-oxo-1-phenylethyl)pyrrolidine-2,5-dione]",ED50,[1],39.5 mg/kg
same,responders at 100 mg/kg,[1],100%
same,TD50 at 0.5 h,[2],144 mg/kg
same,melting point,,128.1 to 129 °C
same,ED50,[4],36.9 mg/kg
same,responders at 100 mg/kg,[4],100%
same,ED50,[5],52.6 mg/kg
same,scPTZ: number of mice protected/number of mice tested,[5],¾
same,6 Hz (44 mA): number of mice protected/number of mice tested,[6],¾
